According to patent US20120178124A1, “STEROL SIDE CHAIN-CLEAVING ENZYME PROTEIN AND USE THEREOF” (MITSUBISHI CHEMICAL CORPORATION, priority 2009, published 2012):
Entries after “also recorded” stand apart in the source; their conditions may differ.

What was measured:
[1] = system: CYPSS204A; experiment: Conversion reaction of substrates by Escherichia coli expression strain BP215; format: cell-based, Sphingomonas subterranea NBRC 16086; details: strain BP215, 28° C., 5 hours
Description: The temperature conditions applied during the PCR were 95° C./5 min, 30 cycles of (98° C./30 sec, 60° C./30 sec, and 68° C./2 min), and 68° C./10 min.
Analysis conditions: Using Chromolith speed rod RP18e (50×4.6 mm) column, 50%→100% CH3CN gradient (0 to 3 min) and 100% CH3CN (3 to 8 min) were used as a mobile phase, and detection was carried out at a flow rate of 2 ml/min using CAD™ (Charged Aerosol Detection) and MS.

[2] = biological target: T1, Sphingomonas subterranea NBRC16086 P450scc CYPSS204A (CYPSS), wild type, SEQ ID NO: 2 (Novosphingobium subterraneum, UniProt A0A0B8ZS99); experiment: Kinetics analysis of CYPSS with 4-cholesten-3-one (conversion to progesterone, cell-free extract)
T1 sequence (A0A0B8ZS99 1-472): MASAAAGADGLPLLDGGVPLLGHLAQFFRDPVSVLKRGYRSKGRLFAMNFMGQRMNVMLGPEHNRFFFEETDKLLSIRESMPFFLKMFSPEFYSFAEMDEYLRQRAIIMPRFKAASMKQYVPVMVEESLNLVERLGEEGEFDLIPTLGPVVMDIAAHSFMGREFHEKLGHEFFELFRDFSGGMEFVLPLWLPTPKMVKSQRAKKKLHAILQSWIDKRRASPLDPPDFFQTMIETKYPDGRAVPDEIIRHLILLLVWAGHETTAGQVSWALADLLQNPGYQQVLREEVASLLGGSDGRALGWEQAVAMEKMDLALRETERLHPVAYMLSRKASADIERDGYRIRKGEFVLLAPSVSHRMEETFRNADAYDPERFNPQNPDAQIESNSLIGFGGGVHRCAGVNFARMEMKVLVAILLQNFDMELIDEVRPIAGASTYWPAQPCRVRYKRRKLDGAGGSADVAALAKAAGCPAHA

[3] = biological target: T2, Novosphingobium aromaticivorans ATCC 700278 P450scc CYP204A1, wild type, SEQ ID NO: 23 (Novosphingobium aromaticivorans, UniProt A4XF07); experiment: Kinetics analysis of CYP204A1 with 4-cholesten-3-one (conversion to progesterone, cell-free extract)
T2 sequence (A4XF07 1-473): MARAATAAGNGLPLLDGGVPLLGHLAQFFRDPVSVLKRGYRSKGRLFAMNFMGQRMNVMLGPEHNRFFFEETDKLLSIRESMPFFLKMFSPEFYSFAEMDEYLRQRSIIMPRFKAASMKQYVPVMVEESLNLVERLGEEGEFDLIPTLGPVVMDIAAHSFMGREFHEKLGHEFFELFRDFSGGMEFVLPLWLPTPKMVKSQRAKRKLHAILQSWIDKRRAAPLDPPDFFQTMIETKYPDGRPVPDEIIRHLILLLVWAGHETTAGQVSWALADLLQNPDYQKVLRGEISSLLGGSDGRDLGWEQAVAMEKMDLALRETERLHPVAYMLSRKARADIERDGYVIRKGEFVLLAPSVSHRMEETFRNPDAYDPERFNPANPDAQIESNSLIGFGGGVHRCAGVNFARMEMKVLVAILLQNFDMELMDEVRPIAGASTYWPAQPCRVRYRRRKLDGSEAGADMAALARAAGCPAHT

[4] = system: CYP204A1; experiment: Conversion of 4-cholesten-3-one to progesterone by Bacillus megaterium cell mass expressing the CYP204A1 gene; details: Bacillus megaterium pXYL204CB cell suspension, 30° C., 24 hours
[5] = 4-cholesten-3-one 0.1 to 500 μM, pH 7.5, 15° C., 60 minutes, Lineweaver-Burk plot
[6] = substrate concentration increased from 10 μM to 100 μM, pH 7.5, 15° C.

For `CC(C)CCC[C@@H](C)[C@H]1CC[C@H]2[C@@H]3CCC4=CC(=O)CC[C@]4(C)[C@H]3CC[C@]12C` [4-cholesten-3-one], the “accumulated amount of side-chain cleavage product” value [1] was 78.0 mg/L, the added substrate remained [1] was “not detected” and the Conversion rate ([1]; to progesterone, pregnenolone or 7-dehydropregnenolone) was 78%. For the same molecule, the Vmax [2, 5] was 78.7 mmol/min/mol, the substrate inhibition ([2]; 4-cholesten-3-one, in words) was “hardly undergoes substrate inhibition; also recorded: substrate inhibition of CYPSS was lower than that of CYP204A1” and the “Vmax, times higher than that of CYP204A1” value ([2]; compared with CYP204A1) was “approximately 1.7 times”. The “Vmax, relative activity” value ([2]; relative to CYP204A1 (1.00)) was 1.66, the “decrease rate of the enzyme protein activity (substrate inhibition)” value [2, 6] was 10% and the Vmax [3, 5] was 47.4 mmol/min/mol. For the same molecule, the “Vmax, relative activity” value ([3]; relative to CYP204A1 (1.00)) was 1.00, the “decrease rate of the enzyme protein activity (substrate inhibition)” value [3, 6] was 33% and the “conversion rate of 4-cholesten-3-one to progesterone” value [4] was 24.5%.
